We go through 15 compounds from patent publication US20070232601A1, “Vla-4 Inhibitor” (priority 2004, published 2007).

For data set [1], the target named is T1, hα4 and β1 integrins (VLA-4) (Homo sapiens, UniProt P05556+P13612).
T1 construct: expressed in transfected cells; host or cells: CHO cells
Description: In vitro evaluation: inhibition of binding of CHO cells expressing hα4 and β1 integrins to Eu3+-hVCAM-1 D1D7-IgG. As to conditions: ligand Eu3+-hVCAM-1 D1D7-IgG 2 nM, Ki calculated from IC50. The essentials: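 CHO cells stably expressing hα4β1 were cultured 2 days, then incubated 1 h at room temperature with Eu3+-hVCAM-1 D1D7-IgG (added as 2 nM solution) and compound in HEPES pH 7.5 with Ca2+, Mg2+ and 4 mM Mn2+, ± 6% human serum albumin. Bound europium was read by time-resolved fluorescence; IC50 was converted to Ki using Scatchard-derived Kd.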

Data set [2] in a line: Dispersibility test in Japanese Pharmacopoeia First and Second Solution. As to conditions: for Dispersibility in Japanese Pharmacopoeia First Solution: JP1, pH 1.2; for Dispersibility in Japanese Pharmacopoeia Second Solution: JP2, pH 6.8. It is filed as physicochemical. As to the method: Dispersibility of a test substance in Japanese Pharmacopoeia First Solution (JP1, pH 1.2) and Japanese Pharmacopoeia Second Solution (JP2, pH 6.8) was evaluated.

T1 sequence (P13612 34-1032): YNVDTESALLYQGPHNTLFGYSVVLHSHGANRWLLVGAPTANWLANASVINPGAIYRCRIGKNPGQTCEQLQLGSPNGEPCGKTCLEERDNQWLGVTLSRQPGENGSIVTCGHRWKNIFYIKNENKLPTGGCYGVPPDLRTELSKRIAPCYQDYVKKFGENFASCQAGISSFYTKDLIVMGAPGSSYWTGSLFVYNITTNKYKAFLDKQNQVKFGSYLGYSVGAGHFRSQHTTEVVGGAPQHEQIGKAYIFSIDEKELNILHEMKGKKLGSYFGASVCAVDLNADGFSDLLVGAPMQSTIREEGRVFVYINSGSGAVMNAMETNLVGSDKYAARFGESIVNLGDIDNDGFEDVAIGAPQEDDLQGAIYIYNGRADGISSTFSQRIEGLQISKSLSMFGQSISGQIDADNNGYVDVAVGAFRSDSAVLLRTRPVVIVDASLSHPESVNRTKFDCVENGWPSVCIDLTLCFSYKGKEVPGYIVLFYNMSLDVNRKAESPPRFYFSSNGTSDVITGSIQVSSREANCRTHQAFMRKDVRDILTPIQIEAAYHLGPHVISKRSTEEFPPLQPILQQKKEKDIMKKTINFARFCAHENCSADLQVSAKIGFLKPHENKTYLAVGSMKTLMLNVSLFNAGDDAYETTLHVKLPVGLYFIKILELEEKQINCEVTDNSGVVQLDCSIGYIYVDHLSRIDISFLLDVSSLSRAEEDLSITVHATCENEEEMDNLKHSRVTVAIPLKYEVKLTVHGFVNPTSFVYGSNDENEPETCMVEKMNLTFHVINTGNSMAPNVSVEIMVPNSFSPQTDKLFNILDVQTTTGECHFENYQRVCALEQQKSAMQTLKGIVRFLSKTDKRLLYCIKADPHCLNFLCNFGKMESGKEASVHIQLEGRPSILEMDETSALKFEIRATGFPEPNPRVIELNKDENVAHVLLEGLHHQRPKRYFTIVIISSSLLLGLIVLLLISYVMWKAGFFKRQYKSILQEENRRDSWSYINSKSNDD
T1 sequence (P05556 21-798): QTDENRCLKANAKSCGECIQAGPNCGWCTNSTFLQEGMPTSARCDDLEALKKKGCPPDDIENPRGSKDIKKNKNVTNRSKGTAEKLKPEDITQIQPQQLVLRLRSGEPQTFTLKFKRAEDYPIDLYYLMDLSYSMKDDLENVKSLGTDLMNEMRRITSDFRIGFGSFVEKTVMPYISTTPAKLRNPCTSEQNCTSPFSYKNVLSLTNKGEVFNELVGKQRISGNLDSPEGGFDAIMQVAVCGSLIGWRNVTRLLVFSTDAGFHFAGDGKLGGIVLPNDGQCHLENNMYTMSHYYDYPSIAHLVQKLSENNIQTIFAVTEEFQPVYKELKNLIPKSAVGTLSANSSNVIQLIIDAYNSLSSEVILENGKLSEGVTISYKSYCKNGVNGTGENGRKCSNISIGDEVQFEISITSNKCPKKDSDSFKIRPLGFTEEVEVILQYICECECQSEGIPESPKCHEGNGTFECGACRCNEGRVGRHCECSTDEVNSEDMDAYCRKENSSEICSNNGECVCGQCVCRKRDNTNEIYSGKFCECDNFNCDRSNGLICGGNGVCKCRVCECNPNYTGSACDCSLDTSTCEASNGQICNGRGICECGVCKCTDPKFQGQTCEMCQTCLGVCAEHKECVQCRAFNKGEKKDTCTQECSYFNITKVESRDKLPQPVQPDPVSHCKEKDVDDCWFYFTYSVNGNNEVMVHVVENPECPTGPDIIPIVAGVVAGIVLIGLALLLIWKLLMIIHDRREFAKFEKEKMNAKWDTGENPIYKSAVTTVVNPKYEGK

The term Ki denotes a dissociation constant, usually derived from enzyme kinetics or from competition with a known ligand. With `O=C(O)CCc1cnc([C@@H]2C[C@H](N3CCN(CC(F)(F)F)CC3)CN2C(=O)Cc2cc(Cl)c(NC(=O)c3csc4ccccc34)cc2Cl)s1` [Example 82], the inhibitory constant (Ki) in data set [1] was 1.3 nM. Also, in data set [2], the “Dispersibility in Japanese Pharmacopoeia First Solution” value was determined as 96 µg/mL and the “Dispersibility in Japanese Pharmacopoeia Second Solution” value was 320 µg/mL.
On to `Cn1cc(C(=O)Nc2cc(Cl)c(CC(=O)N3CCC[C@H]3c3ncc(CCC(=O)O)s3)cc2Cl)c2ccccc21` [Example 26, 3-[2-[1-[2,5-Dichloro-4-(1-methyl-3-indolylcarbonylamino)phenylacetyl]-(2S)-pyrrolidinyl]-5-thiazolyl]propionic acid], for which the Ki in data set [1] was 2.5 nM. In data set [2], the “Dispersibility in Japanese Pharmacopoeia First Solution” value worked out at 4 µg/mL and the “Dispersibility in Japanese Pharmacopoeia Second Solution” value is 660 µg/mL.
Taken in the same sequence, the figures for `O=C(O)CCc1cnc([C@@H]2[C@@H](O)CCN2C(=O)Cc2cc(Cl)c(Nc3nc4ccccc4s3)cc2F)s1` [Example 120, 3-[2-[1-[4-(2-Benzothiazolyl)amino-5-chloro-2-fluorophenyl]acetyl-(3S)-hydroxy-(2S)-pyrrolidinyl]-5-thiazolyl]propionic acid] were 9.8 nM, 320 µg/mL and 760 µg/mL.
Taken in the same sequence, the figures for `O=C(O)CCc1cnc([C@@H]2C[C@H](N3CCC(F)(F)CC3)CN2C(=O)Cc2cc(Cl)c(NC(=O)c3coc4ccccc34)cc2Cl)s1` [Example 78, 3-[2-[1-[4-(3-Benzo[b]furanylcarbonylamino)-2,5-dichlorophenylacetyl]-(4S)-[1-(4,4-difluoro)piperidinyl]-(2S)-pyrrolidinyl]-5-thiazolyl]propionic acid] were 1.2 nM, 260 µg/mL and 230 µg/mL.
`CO[C@H]1C[C@@H](c2ncc(CCC(=O)O)s2)N(C(=O)Cc2cc(Cl)c(Nc3nc4ccccc4s3)cc2Cl)C1` [Example 112, 3-[2-[1-[4-(2-Benzothiazolyl)amino-2,5-dichlorophenyl]acetyl-(4S)-methoxy-(2S)-pyrrolidinyl]-5-thiazolyl]propionic acid]: in data set [1], the Ki is 1.9 nM. In data set [2], the “Dispersibility in Japanese Pharmacopoeia First Solution” value came out at 420 µg/mL and the “Dispersibility in Japanese Pharmacopoeia Second Solution” value amounted to 770 µg/mL.
Turning to `CO[C@H]1C[C@@H](c2ncc(CCC(=O)O)s2)N(C(=O)Cc2cc(Cl)c(Nc3nc4cc(F)ccc4s3)cc2F)C1` [Example 113, 3-[2-[1-[4-(5-Fluoro-2-benzothiazolyl)amino-5-chloro-2-fluorophenyl]acetyl-(4S)-methoxy-(2S)-pyrrolidinyl]-5-thiazolyl]propionic acid], in data set [1], the Ki was 5 nM. Moreover, in data set [2], the “Dispersibility in Japanese Pharmacopoeia First Solution” value worked out at 180 µg/mL and the “Dispersibility in Japanese Pharmacopoeia Second Solution” value came to 770 µg/mL.
Consider `O=C(O)CCc1cnc([C@@H]2C[C@H](N3CCN(CC(F)(F)F)CC3)CN2C(=O)Cc2cc(Cl)c(NC(=O)c3coc4ccccc34)cc2F)s1` [Example 83], for which, in data set [1], the Ki was 1.6 nM. Moreover, in data set [2], the “Dispersibility in Japanese Pharmacopoeia First Solution” value came out at 540 µg/mL and the “Dispersibility in Japanese Pharmacopoeia Second Solution” value was 1000 µg/mL.
Taken in the same sequence, the figures for `COC1CN([C@H]2C[C@@H](c3ncc(CCC(=O)O)s3)N(C(=O)Cc3cc(Cl)c(NC(=O)c4csc5ccccc45)cc3F)C2)C1` [Example 65, 3-[2-[1-[4-(3-Benzo[b]thiophenylcarbonylamino)-5-chloro-2-fluorophenylacetyl]-(4S)-[1-(3-methoxy)azetidinyl]-(2S)-pyrrolidinyl]-5-thiazolyl]propionic acid] were 0.93 nM, 1000 µg/mL and 1000 µg/mL.
Consider `CCOC1CN([C@H]2C[C@@H](c3ncc(CCC(=O)O)s3)N(C(=O)Cc3cc(Cl)c(NC(=O)c4cn(C)c5ccccc45)cc3F)C2)C1` [Example 69, 3-[2-[1-[5-Chloro-2-fluoro-4-(1-methyl-3-indolylcarbonylamino)phenylacetyl]-(4S)-[1-(3-ethoxy)azeditinyl]-(2S)-pyrroldinyl]-5-thiazolyl]propionic acid], for which the inhibitory constant (Ki) in data set [1] was 0.71 nM. In data set [2], the “Dispersibility in Japanese Pharmacopoeia First Solution” value amounted to 940 µg/mL and the “Dispersibility in Japanese Pharmacopoeia Second Solution” value amounted to 940 µg/mL.
As for `O=C(O)CCc1cnc([C@@H]2C[C@H](Oc3cccnc3)CN2C(=O)Cc2cc(Cl)c(NC(=O)c3csc4ccccc34)cc2F)s1` [Example 45, 3-[2-[1-[4-[(3-Benzo[b]thienylcarbonyl)amino]-5-chloro-2-fluorophenylacetyl]-(4S)-(3-pyridyloxy)-(2S)-pyrrolidinyl]-5-thiazolyl]propionic acid], the Ki in data set [1] was 1.6 nM. Further, in data set [2], the “Dispersibility in Japanese Pharmacopoeia First Solution” value is 2000 µg/mL and the “Dispersibility in Japanese Pharmacopoeia Second Solution” value is 200 µg/mL.
Turning to `C[C@@H]1CN([C@H]2C[C@@H](c3ncc(CCC(=O)O)s3)N(C(=O)Cc3cc(Cl)c(NC(=O)c4csc5ccccc45)cc3F)C2)C[C@H](C)O1` [Example 87, 3-[2-[1-[4-(3-Benzo[b]thiophenylcarbonylamino)-5-chloro-2-fluorophenylacetyl]-(4S)-[4-(cis-2,6-dimethyl)morpholinyl]-(2S)-pyrrolidinyl]-5-thiazolyl]propionic acid], the inhibition constant (Ki) in data set [1] was 1 nM. In data set [2], the “Dispersibility in Japanese Pharmacopoeia First Solution” value amounted to 1200 µg/mL and the “Dispersibility in Japanese Pharmacopoeia Second Solution” value was 1300 µg/mL.
Taken in the same sequence, the figures for `COC1CN([C@H]2C[C@@H](c3ncc(CCC(=O)O)s3)N(C(=O)Cc3cc(Cl)c(NC(=O)c4csc5ccccc45)cc3Cl)C2)C1` [Example 66] were 0.84 nM, 1000 µg/mL and 1000 µg/mL.
With `C[C@@H]1CN([C@H]2C[C@@H](c3ncc(CCC(=O)O)s3)N(C(=O)Cc3cc(Cl)c(NC(=O)c4cn(C)c5ccccc45)cc3Cl)C2)C[C@H](C)O1` [Example 86, 3-[2-[1-[2,5-Dichloro-4-(1-methyl-3-indolylcarbonylamino)phenylacetyl]-(4S)-[4-(cis-2,6-dimethyl)morpholinyl]-(2S)-pyrrolidinyl]-5-thiazolyl]propionic acid], the inhibition constant (Ki) in data set [1] is 1 nM. For the same compound, in data set [2], the “Dispersibility in Japanese Pharmacopoeia First Solution” value amounted to 1200 µg/mL and the “Dispersibility in Japanese Pharmacopoeia Second Solution” value stood at 1400 µg/mL.
Turning to `O=C(O)CCc1cnc([C@@H]2C[C@H](N3CCC(F)(F)CC3)CN2C(=O)Cc2cc(Cl)c(NC(=O)c3coc4ccccc34)cc2F)s1` [Example 77, 3-[2-[1-[4-(3-Benzo[b]furanylcarbonylamino)-5-chloro-2-fluorophenylacetyl]-(4S)-[1-(4,4-difluoro)piperidinyl]-(2S)-pyrrolidinyl]-5-thiazolyl]propionic acid], in data set [1], the Ki was 0.72 nM. In addition, in data set [2], the “Dispersibility in Japanese Pharmacopoeia First Solution” value came out at 430 µg/mL and the “Dispersibility in Japanese Pharmacopoeia Second Solution” value is 380 µg/mL.
As for `O=C(O)CCc1cnc([C@@H]2[C@@H](O)CCN2C(=O)Cc2ccc(Nc3nc4ccccc4s3)c(Cl)c2)s1` [Example 119, 3-[2-[1-[4-(2-Benzothiazolyl)amino-3-chlorophenyl]acetyl-(3S)-hydroxy-(2S)-pyrrolidinyl]-5-thiazolyl]propionic acid], the inhibition constant (Ki) in data set [1] is 6.2 nM. Further, in data set [2], the “Dispersibility in Japanese Pharmacopoeia First Solution” value was found to be 730 µg/mL and the “Dispersibility in Japanese Pharmacopoeia Second Solution” value worked out at 730 µg/mL.
